Assay [1] deals with tight junction proteins (ZO-1, Occludin, Claudin-5). The assay is described as follows: Immunofluorescence of tight junction proteins in isolated microvessels of diabetic mice. Type of assay: in vivo. On the procedure: Male laca mice weighing between 28-32 g were procured from the Central Animal House, Panjab University, Chandigarh. The animals were acclimatized and were fed with standard pellet diet and water ad libitum. The experimental protocols were approved by the Institutional Ethics Committee and were conducted according to Indian National Science Academy (INSA) guidelines for the use and care of experimental animals. The animals were divided into four groups: (i) Control animals received phosphate buffered saline (PBS) throughout the study; (ii) Control+GSNO animals were administered with GSNO 100 μg/kg body weight orally, dissolved in PBS after every 24 h for 8 weeks; (iii) Diabetic animals were injected with STZ at a dose of 40 mg/kg body weight intraperitoneally for 5 days dissolved in 0.1 mol/L citrate buffer, pH 4.5 and Diabetic+GSNO mice were administered GSNO 100 μg/kg body weight orally dissolved in PBS after every 24 h for 8 weeks after the induction of diabetes. Animals were assessed weekly for development of diabetic encephalopathy in terms of memory deficits. All experimental procedures were done on mice at the end of study.
The microvessels were isolated by the method described by Brooks et al., (2005). Brain tissue was homogenized in microisolation buffer (103 mM NaCl, 4.7 mM KCl, 2.5 mM CaCb, 1.2 mM KH2PO4, 1.2 mM MgSO4, 15 mM HEPES, 2.5 mM NaHCO3, 10 mM D-glucose, 1 mM sodium pyruvate and 10 g/L dextran (64,000 mol wt), pH 7.4) and equal amount of 26% (w/v) dextran was added. The sample was then centrifuged at 5600 g for 10 min and pellets obtained were resuspended in microisolation buffer. Then the suspension was filtered through 70 μm filter (BD Biosciences, Gurgaon, India). […]
Isolated microvessels were resuspended in PBS and allowed to attach to polylysine-coated slides for 30 min at 37° C. and fixed at 95° C. for 10 min. […] After placement and sealing of coverslips, photographs were taken with 40× objective on a Nikon TE-300 fluorescence microscope with a fluorescein filter (Schulze & Firth 1993).

Another assay concerns passive EAE disease. The assay is described as follows: Adoptive transfer model of EAE (passive EAE), clinical disease. The format is in vivo, SJL mice. On the procedure: EAE disease was induced in 8- to 10-week-old female SJL mice by immunization with an emulsion (100 μl, subcutaneous) of proteolipid protein peptide (PLP139-151; Peptide International. Louisville, Ky.) and 200 μg of killed Mycobacterium tuberculosis H37Ra (Difco, Detroit, Mich., USA) followed by booster on day 7 as described previously (Nath et al., 2010). The mice additionally received pertussis toxin (Sigma-Aldrich, St. Louis, Mo.; 200 ng/300 μl PBS, intravenous) on day 0 and 3 post-immunization. On the day of immunization, one group of mice received 100 μl phosphate buffered saline (PBS) and the second group of mice received daily GSNO (1.0 mg/kg, 100 μl/PBS) via oral route GSNO was purchased from World Precision Instruments (Sarasota, Fla.) and its concentration was adjusted spectrophotometrically at 334 nm. Individual animals were observed daily for clinical disease severity by an investigator, blinded to experimental treatments, on a 0-5 scale as follows: 0=no abnormality; 1=piloerection, sluggish, 2=limp tail; 2.5=hind limb weakness (legs slip through cage top); 3=hind limb paralysis, 4=hind and forelimb paralysis; and 5=moribund.
At the peak of EAE disease, the mice were sacrificed and CD4+ T cells were purified from draining lymph nodes (DLN) and spleens by CD4+ T cell isolation kit (Miltenyi, Auburn. Calif.). The purified T cells (2.5×10^6 cells/ml) were cultured in 96-well round-bottom microculture plates (Falcon Labware, Oxnard, Calif.) in RPMI-complete media containing RPMI 1640 (Life Technologies, Gaithersburg, Md.), 10% FBS, and 100 μg/ml streptomycin and penicillin (Atlanta Biologicals Norcross, Ga.), 1 mM glutamine, 1 mM nonessential amino acids, and 50 μM 2-mercaptoethanol (Sigma-Aldrich). For skewing of different CD4+ T cell subsets and their expansion, the isolated CD4+ T cells were stimulated with PLP139-151 (5 μg/ml) with IL-2 (10 ng/ml) for TH0, IL-2 (10 ng/ml), rhIL-12p35 (10 ng/ml), and anti-IL-4 (1 μg/ml) for TH1, or recombinant mouse IL-12/23p40 homodimer (10 ng/ml), anti-IFN-γ 1 (μg/ml), anti-IL-4 (1 μg/ml) for TO 17. All cytokines and antibodies were purchased from BD Biosciences (San Diego, Calif.). Following stimulation, the cells were harvested for adoptive transfer of EAE disease and the culture supernatants were collected for analysis of IFN-γ, IL-17, and IL-10 expression by ELISA (Biolegend Cat #430802, 432505, and 431411; San Diego, Calif.).
(20-30×10^6 T cells in 300 μl RPMI media per mouse) were injected to naive SJL female mice (8-10 week old) via intraperitoneal route. The recipient mice were also given two doses of pertussis toxin (200 ng/300 μl of PBS/i.p.) on day 0 and 2 of post immunization. Clinical EAE disease was measured as describe above.

Where [2] appears, read: microvessels of GSNO supplemented diabetic animals vs untreated diabetic group.
Setting [3] is: daily GSNO treatment of recipient mice.

`N[C@@H](CCC(=O)N[C@@H](CSN=O)C(=O)NCC(=O)O)C(=O)O` [GSNO, S-nitrosoglutathione]: the claudin-5 fluorescent intensity entry in assay [1] (GSNO treated diabetic animals) is listed as “No change”. Further, in assay [1] (setting [2]), the “fluorescent intensity for ZO-1” value is given as “increased fluorescent intensity” and the “fluorescent intensity for occludin” value was “increased fluorescent intensity”. For the same compound, in the assay on passive EAE disease (setting [3]), the “passive EAE disease severity, recipients of T cells from GSNO treated EAE mice treated with GSNO during the disease” value is “further reduced” and the “passive EAE disease, recipients of T cells from untreated EAE mice treated with GSNO during the disease” value is reported as “reduced the EAE disease”. Besides, the “passive EAE disease after transfer of T cells from GSNO treated EAE mice” value in the assay with passive EAE disease (recipients without GSNO, vs T cells from untreated EAE mice) is “significantly delayed and milder disease”. In the assay with passive EAE disease (vs T cells from untreated EAE mice), the “passive EAE disease after transfer of TH1 and TH17 skewed T cells from GSNO treated EAE mice” value is recorded as “significantly milder EAE disease”.

The values are drawn from patent US10925858B2, “S-nitrosoglutathione (GSNO) and GSNO reductase inhibitors for use in therapy” (MUSC FOUNDATION FOR RESEARCH DEVELOPMENT, priority 2017, dated 2021).
